Assay results published in publication PMC10974579, “A Monocarbonyl Curcuminoid Derivative Inhibits the Activity of Human Glutathione Transferase A4-4 and Chemosensitizes Glioblastoma Cells to Temozolomide” (Pharmaceuticals, 2024).
Like-named read-outs stand apart in the source and are kept apart here.

What was measured:
hGSTA4-4 = target: T1, hGSTA4-4 (Homo sapiens, UniProt O15217); assay: hGSTA4-4 enzyme inhibition assay (CDNB-GSH conjugation, 340 nm); settings: for Enzyme Inhibition (%): hGSTA4-4, compound at 100 μM, mean of three experiments, 100 µM; for inhibition at 100 µM: read-out: Enzyme Inhibition (%), hGSTA4-4, compound at 100 μM, mean of three experiments
T1 sequence (O15217 1-222): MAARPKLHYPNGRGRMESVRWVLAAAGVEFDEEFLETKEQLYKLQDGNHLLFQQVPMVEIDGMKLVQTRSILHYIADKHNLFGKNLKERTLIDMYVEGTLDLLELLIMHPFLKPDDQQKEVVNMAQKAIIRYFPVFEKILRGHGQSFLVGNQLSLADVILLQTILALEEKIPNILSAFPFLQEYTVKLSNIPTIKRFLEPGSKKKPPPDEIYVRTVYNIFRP
Protocol: hGSTA4-4 activity was determined by monitoring (at 25 °C) the formation of the conjugate between CDNB and GSH at 340 nm (ε = 9600 L·mol^−1·cm^−1) for 120 s, as previously described [58]. One unit of enzyme activity is defined as the amount of enzyme that produces 1.0 μmol of product per minute under the assay conditions. The tested natural products and monocarbonyl curcumin derivatives were dissolved in DMSO (100 μΜ) and added to the assay mixture (the volume of DMSO was maintained at a 2% v/v final concentration). Initial velocities were determined in triplicates and were corrected for spontaneous reaction rates, when necessary. […] The IC50 values were determined from a graph of the remaining enzyme activity (%) against inhibitor concentration. The computer program GraphPad Prism version 8 (GraphPad Prism Software, Inc., Boston, MA, USA) was used for producing kinetic graphs and determining apparent kinetic parameters/constants and IC50 values.

U-87 MG cells [1] = settings: cited from earlier work
[2] = In vitro cytotoxicity, MTT assay, U-251 MG; format: cell-based, human; settings: human, U-251 MG cells, pH 7.4, U-251 MG cells
Protocol: (§1) U-251 and U-87 MG cells were grown in Dulbecco’s modified Eagle’s growth medium (pH 7.4) supplemented with 10% FBS, 100 U/mL penicillin, 2 mM glutamine, and 100 μg/mL streptomycin. Cell cultures were maintained in flasks and grown at 37 °C in a humidified atmosphere of 5% CO2. Subconfluent cells were detached using 0.05% (w/v) trypsin−0.25% (w/v) ethylenediaminetetraacetic acid solution at a subcultivation ratio of 1:2 to 1:5. […] Cells were seeded in 96-well plates (8 × 10^3 cells/well in 100 μL culture medium) and grown overnight at 37 °C in a 5% CO2 incubator. Exponentially growing cells were incubated for 48 h with various concentrations ranging between 10^−3 and 10^−8 M of each compound. The final DMSO concentration never exceeded 0.2%. The medium was then removed and replaced with 100 μL MTT solution (1 mg/mL). After 4 h incubation, the solution was aspirated, formazan crystals were solubilized in 100 μL DMSO, and the absorbance was recorded at 540 nm (Tecan well plate reader). The same procedure was followed for the TMZ sensitization experiments. […] Data were analyzed using the GraphPad Prism 5.0 software.

U-251 MG cells [3] = assay: In vitro cytotoxicity, MTT assay, U-251 MG; format: cell-based, human; settings: 48 h
Protocol: as §1

[4] = In vitro cytotoxicity, MTT assay, U-87 MG; format: cell-based, human; settings: human, U-87 MG cells, pH 7.4, U-87 MG cells
Protocol: as §1

U-87 MG cells [5] = assay: In vitro cytotoxicity, MTT assay, U-87 MG; format: cell-based, human; settings: 48 h
Protocol: as §1

U-251 MG cells [6] = assay: TMZ sensitization experiment, MTT assay, U-251 MG; format: cell-based, human
Protocol: as §1, with “Cell” for “U-251 and U-87 MG cells were grown in Dulbecco’s modified Eagle’s growth medium (pH 7.4) supplemented with 10% FBS, 100 U/mL penicillin, 2 mM glutamine, and 100 μg/mL streptomycin. Cell”, “CO2.” for “CO2. Subconfluent cells were detached using 0.05% (w/v) trypsin−0.25% (w/v) ethylenediaminetetraacetic acid solution at a subcultivation ratio of 1:2 to 1:5.”

hGSTP1-1 = target: hGSTP1-1; design: method as in PMID 36670925; settings: cited from earlier work; for Ki: read-out: inhibition constant Ki

| Compound | Enzyme Inhibition (%) (hGSTA4-4) | inhibition at 100 µM (hGSTA4-4) [%] | other results |
| --- | --- | --- | --- |
| O=C1c2c(O)cc(O)cc2O[C@H](c2ccc(O)c(O)c2)[C@H]1O [Taxifolin hydrate] | 40.37 | 40 |  |
| O=c1oc2c(O)c(O)cc3c(=O)oc4c(O)c(O)cc1c4c23 [Ellagic acid, Ellagic Acid] | 95.1 | 95 | IC50 (U-87 MG cells [1]; 48 h treatment, read-out: IC50 (cytotoxicity)): 91.2 µM; IC50 (hGSTA4-4): 0.44 ± 0.01 µM |
| COc1cc(/C=C/C(=O)/C=C/c2ccc(O)c(OC)c2)ccc1O [DM101] | 94.1 | > 90 | IC50 (hGSTA4-4): 12.7 ± 1.1 µM |
| COc1cc2c(c(OC)c1OC)-c1ccc(OC)c(=O)cc1[C@@H](NC(C)=O)CC2 [Colchicine] | 17.1 | 17 |  |
| CC1=C(C=O)C(C)(C)CC=C1 [Safranal] |  | 21.8 |  |
| O=C1C[C@@H](c2ccc(O)cc2)Oc2cc(O)cc(O)c21 [Naringenin] |  | 28.5 |  |
| O=c1c(O)c(-c2ccc(O)c(O)c2)oc2cc(O)cc(O)c12 [Quercetin] |  | 84.7 |  |
| O=C(/C=C/c1ccc(O)c(O)c1)/C=C/c1ccc(O)c(O)c1 [DM148] |  | 4.6 | IC50 at 48 h [2]: 89.2 µM; IC50 (U-251 MG cells [3]): 89.2 ± 3.41 µM; IC50 at 48 h [4]: 91.1 µM; IC50 (U-87 MG cells [5]): 91.1 ± 5.64 µM; cell survival (U-251 MG cells [6]; 48 h, compound alone at 10 μM): > 85%; change of cell survival in combination with TMZ (U-251 MG cells [6]; compound 10 μM + TMZ 150 μM, added together or 3 or 6 h pre-incubation, 48 h): did not result in any dramatic changes |
| Oc1ccc(/C=C/c2cc(O)cc(O)c2)cc1 [Resveratrol] | 8.87 | 8.9 |  |
| O=C(O)/C=C/c1ccc(O)cc1 [Coumaric Acid] |  | 27.3 |  |
| O=C1/C(=C/c2ccc(O)c(O)c2)CCC/C1=C\c1ccc(O)c(O)c1 [DM151] |  |  | Ki (hGSTP1-1; hGSTP1-1, CDNB substrate): 9.55 µM; type of inhibition (hGSTP1-1; hGSTP1-1, both GSH and CDNB substrates): purely non-competitive; Ki (hGSTP1-1; hGSTP1-1, variable substrate GSH): 5.79 µM; IC50 at 48 h [2]: 25.5 µM; IC50 (U-251 MG cells [3]): 25.6 ± 4.83 µM; IC50 at 48 h [4]: 18.9 µM; IC50 (U-87 MG cells [5]): 18.9 ± 5.81 µM; cell survival in combination with TMZ (U-251 MG cells [6]; 3 h pretreatment with compound 10 μM, then TMZ 150 μM 48 h): 45%; cell survival in combination with TMZ (U-251 MG cells [6]; 6 h pretreatment with compound 10 μM, then TMZ 150 μM 48 h): approximately 35%; cell survival (U-251 MG cells [6]; 48 h, compound alone at 10 μM): > 85%; cell survival in combination with TMZ (U-251 MG cells [6]; compound 10 μM + TMZ 150 μM added together, 48 h): 55% |
| O=C(O[C@@H]1Cc2c(O)cc(O)cc2O[C@@H]1c1cc(O)c(O)c(O)c1)c1cc(O)c(O)c(O)c1 [Epigallocatechin gallate] |  | 86.4 |  |
| COc1cc(/C=C/C(=O)CC(=O)/C=C/c2ccc(O)c(OC)c2)ccc1O [Curcumin] |  | 80.9 |  |
| Cn1nnc2c(C(N)=O)ncn2c1=O [TMZ, temozolomide] |  |  | IC50 (U-87 MG cells [1]; 48 h, interquartile range, read-out: IQR of IC50): 92 to 590 µM; IC50 (U-87 MG cells [1]; 48 h, read-out: median IC50): 223 µM; cell survival (U-251 MG cells [6]; 48 h, TMZ alone at 150 μM): > 85% |
| O=C(O)c1cc(O)c(O)c(O)c1 [Gallic acid] |  | 20.8 |  |
| OC[C@H]1O[C@@H](Oc2cc(O)cc(/C=C/c3ccc(O)cc3)c2)[C@H](O)[C@@H](O)[C@@H]1O [Polydatin] |  | 32.3 |  |

More lines, main results first:

| Enzyme Inhibition (%) (hGSTA4-4) | inhibition at 100 µM (hGSTA4-4) [%] | Compound | other results |
| --- | --- | --- | --- |
| 81.8 | > 90 | O=C(/C=C/c1ccc(O)cc1)/C=C/c1ccc(O)cc1 [DM96] |  |
|  | 55.7 | COc1ccc(/C=C2\CCC/C(=C\c3ccc(OC)c(OC)c3)C2=O)cc1OC [DM57] |  |
|  | 64.9 | COc1ccc(/C=C2\CCC/C(=C\c3ccc(OC)cc3)C2=O)cc1 [DM46] |  |
|  | 73.9 | O=C(/C=C/c1ccc(F)cc1)/C=C/c1ccc(F)cc1 [DM109] |  |
|  | 74.9 | O=C1/C(=C/c2ccc(F)cc2)CCC/C1=C\c1ccc(F)cc1 [DM62] |  |
|  | 54.8 | COc1ccc(/C=C/C(=O)/C=C/c2ccc(OC)c(OC)c2)cc1OC [DM95] |  |
| 95.1 | > 90 | COc1cc(/C=C2\CCC/C(=C\c3ccc(O)c(OC)c3)C2=O)ccc1O [DM100] | IC50 (hGSTA4-4): 16.9 ± 0.4 µM |
